Experimental findings from PubChem BioAssay (NCI) are described below.

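Following 48 hours of exposure in 96-well plates, responses at five concentrations were used to interpolate endpoints linearly. GI50 marks 50% less growth. TGI denotes the concentration required for complete inhibition of growth.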

Test systems include A549 NSCLC; CAKI-1 renal; MALME-3M melanoma; MDA-MB-231 breast; CCRF-CEM leukemia; SK-MEL-28 melanoma; SN12C renal; SK-MEL-2 melanoma; T-47D breast; RPMI-8226 leukemia.
What all share (test): NCI anticancer screen, dose series, 48 h

Turning to `COc1cc(N2CCN(C(C)C)CC2)ccc1Nc1nc(Nc2ccc(F)cc2C(=O)NCC(O)CO)c2cc[nH]c2n1` (stereo not given), the GI50 in the assay with A549 NSCLC was 5.76 µM; in the assay on CAKI-1 renal, more than 25 µM; in the assay with MALME-3M melanoma it was 4.65 µM; in the assay on MDA-MB-231 breast, 13.6 µM; in the assay with CCRF-CEM leukemia, 2.65 µM; in the assay with SK-MEL-28 melanoma, more than 25 µM. Further, the GI50 in the assay on SN12C renal was 7.62 µM; in the assay with SK-MEL-2 melanoma, 4.18 µM; in the assay with T-47D breast, 7.52 µM; in the assay on RPMI-8226 leukemia, 15 µM. For the same molecule, the TGI in the assay on A549 NSCLC, with CAKI-1 renal, in the assay with MALME-3M melanoma, with MDA-MB-231 breast, in the assay on CCRF-CEM leukemia and with SK-MEL-28 melanoma was more than 25 µM throughout. Also, the TGI is more than 25 µM with SN12C renal, more than 23.6 µM with SK-MEL-2 melanoma, more than 25 µM with T-47D breast and more than 25 µM with RPMI-8226 leukemia.
For the molecule `CCSc1nc(NC(C)c2ccccc2)c2cnn(CO)c2n1` (stereo not given), the GI50 was more than 100 µM in the assay on A549 NSCLC; 0.135 µM in the assay on CAKI-1 renal; 29.6 µM with MALME-3M melanoma; 61.8 µM in the assay on MDA-MB-231 breast; more than 100 µM in the assay with CCRF-CEM leukemia; 87.2 µM in the assay on SK-MEL-28 melanoma. The GI50 with SN12C renal, with SK-MEL-2 melanoma, in the assay with T-47D breast and with RPMI-8226 leukemia was more than 100 µM each time. The TGI in the assay on A549 NSCLC is more than 100 µM; with CAKI-1 renal, 56.1 µM; with MALME-3M melanoma, 84.9 µM; with MDA-MB-231 breast, more than 100 µM; in the assay with CCRF-CEM leukemia it was more than 100 µM; in the assay on SK-MEL-28 melanoma it was more than 100 µM. For the same molecule, the TGI in the assay with SN12C renal, with SK-MEL-2 melanoma, with T-47D breast and in the assay on RPMI-8226 leukemia was more than 100 µM in each case.
Take `O=C1CC(C(=O)O)Cc2c(Br)ccc(O)c21` (stereo not given): the TGI with A549 NSCLC, in the assay with CAKI-1 renal, in the assay on MALME-3M melanoma, with MDA-MB-231 breast, in the assay with CCRF-CEM leukemia and in the assay on SK-MEL-28 melanoma was more than 100 µM in each case. Besides, the TGI in the assay with SN12C renal, with SK-MEL-2 melanoma, with T-47D breast and in the assay with RPMI-8226 leukemia was more than 100 µM in each case.
`COc1ccc(C2=NN(C=O)C(c3ccc(OS(=O)(=O)c4ccc(C)cc4)c(OC)c3)C2)cc1` (stereo not given): the GI50 in the assay on A549 NSCLC is 9.42 µM; with CAKI-1 renal, 5.35 µM; in the assay on MALME-3M melanoma, 7.09 µM; in the assay with MDA-MB-231 breast it was 5.52 µM; with CCRF-CEM leukemia, 4.05 µM; with SK-MEL-28 melanoma, 10.6 µM. The GI50 with SN12C renal is 65.9 µM; in the assay on SK-MEL-2 melanoma, 3.52 µM; with T-47D breast it was 2.27 µM; with RPMI-8226 leukemia, 4.12 µM. The TGI is more than 100 µM with A549 NSCLC; more than 100 µM in the assay with CAKI-1 renal; 49.3 µM in the assay with MALME-3M melanoma; more than 100 µM with MDA-MB-231 breast; more than 100 µM with CCRF-CEM leukemia; more than 100 µM in the assay with SK-MEL-28 melanoma. Also, the TGI in the assay with SN12C renal was more than 100 µM; in the assay with SK-MEL-2 melanoma, 38.6 µM; in the assay with T-47D breast it was more than 100 µM; in the assay on RPMI-8226 leukemia it was more than 100 µM.
